The results in this text go back to ChEMBL document CHEMBL1153101, “Hit to lead studies on (hetero)arylpyrimidines--agonists of the canonical Wnt-beta-catenin cellular messaging system” (Bioorg Med Chem Lett, 2010).

For one data set, the system named is U2OS. Briefly: Activation of Wnt-3a/Dkk-1 expressed in human U2OS cells at 20 uM by TCF-luciferase assay relative to control. Format: cell-based.
The nature of data set [1]: Activation of Wnt-3a/Dkk-1 expressed in human U2OS cells by TCF-luciferase assay. It is filed as cell-based.
Data set [2] in a line: Permeability by PAMPA. Format: ADME. The conditions noted are these: read-out: permeability.
Data set [3] can be described thus: Aqueous solubility of the compound. Format: physicochemical.
A short description of data set [4]: Metabolic stability in rat liver microsomes. It is filed as ADME, Microsome. In general terms: Liver microsomes are vesicles of endoplasmic reticulum, rich in cytochrome P450 enzymes.
The subject of data set [5] is Mus musculus. Kind of data set: Osteogenic activity in wild type C57BL/6 mouse calvaria in vivo assessed as increase in mineral apposition rate at 0.1 mg/kg/day by histomorphometry measurement.
In data set [6] the test system is Mus musculus. Kind of data set: Osteogenic activity in wild type C57BL/6 mouse calvaria in vivo assessed as increase in mineral apposition rate at 0.03 mg/kg/day by histomorphometry measurement.
Data set [7] deals with Mus musculus. Briefly: Osteogenic activity in wild type C57BL/6 mouse calvaria in vivo assessed as non phosphorylated beta-catenin at 0.3 mg/kg/day by immunohistochemistry.
Data set [8] in a line: Inhibition of Wnt-3a/Dkk-1-mediated [32P]GSk3beta phosphorylation in human U2OS cells at 20 uM by TCF-luciferase assay relative to control. Format: cell-based.
The test system of data set [9] is Mus musculus. Briefly: Osteogenic activity in wild type C57BL/6 mouse calvaria in vivo assessed as non phosphorylated beta-catenin at 1 mg/kg/day by immunohistochemistry.

SMILES strings stand for the structures. In brackets after ≈: the same amount, converted by molar mass. Activity calls are given as the source filed them. No cut-off for these calls is given here. Where only a bound is given, the exact number is not on record here.

Take `OC[C@H](Cc1cn(Cc2cc(F)cc(F)c2)cn1)Nc1nccc(-c2ccc3ccccc3c2)n1`: the fold change (FC) in the data set on U2OS worked out at 2.
As a reminder, the EC50 is the concentration that produces a half-maximal response. Read a low EC50 as an effect from little substance. In turn, `c1cncc(CCNc2nccc(-c3ccncc3)n2)c1` came in with a fold change (FC) with U2OS of 2.8. Besides, the EC50 in data set [1] was found to be 4.6 µM.
Take `Cc1cc(C)n(CCCNc2nccc(-c3ccncc3)n2)n1`: in the data set on U2OS, the fold change (FC) came to 2.1. In data set [1], this compound yielded a half-maximal effective concentration (EC50) of 29.6 µM.
In the data set with U2OS, `Cc1[nH]c2ccc(O)cc2c1CCNc1nccc(-c2cccnc2)n1` yielded a fold change (FC) of 5.1. The compound further yielded an EC50 in data set [1] of 12.2 µM.
As for `CCOC[C@H](Cc1c[nH]cn1)Nc1nccc(-c2ccc3ccccc3c2)n1`, the fold change (FC) in the data set with U2OS came out at 1.9. Besides, in data set [1], the EC50 stood at 14.4 µM.
For `c1ccc2c(CCNc3nccc(-c4ccncc4)n3)c[nH]c2c1`, in that order: 7.5 and 2.7 µM.
For `c1cncc(-c2ccnc(NCCc3c[nH]cn3)n2)c1`, in that order: 3.1 and 28.8 µM.
Turning to `c1cc(CCNc2nccc(-c3ccncc3)n2)ccn1`, the fold change (FC) in the data set on U2OS came out at 4.3. The EC50 in data set [1] was determined as 6.8 µM.
The compound `NC(=O)Cn1cnc(C[C@@H](CO)Nc2nccc(-c3ccc4ccccc4c3)n2)c1` returned a fold change (FC) with U2OS of 3.9.
On to `c1cncc(-c2ccnc(NCCc3ccncc3)n2)c1`, for which, in the data set on U2OS, the fold change (FC) came out at 3.4. This compound returned an EC50 in [1] of 20.2 µM.
By solubility is commonly meant the concentration that dissolves in the medium under given conditions. A higher solubility goes with much dissolved substance. Broadly, the half-life is the time in which the quantity being followed falls by half. The low end stands for rapid decline, the high end for slow decline. For the compound `OC[C@H](Cc1c[nH]cn1)Nc1nccc(-c2ccc3ccccc3c2)n1`, the Papp in data set [2] came out at 0.13 ×10⁻⁶ cm/s. This compound yielded a fold change (FC) with U2OS of 4.9. The EC50 in data set [1] was found to be 6.8 µM. This compound gave a solubility in [3] of 65 µg/mL (≈ 188 µM). In addition, the half-life in data set [4] is no less than 1.33 h. Besides, the outcome in the data set on Mus musculus [5] and with Mus musculus [6] was Active.
As for `C=C1CCCCC1OC[C@H](Cc1c[nH]cn1)Nc1nccc(-c2ccc3ccccc3c2)n1` (stereo partly drawn), the fold change (FC) in the data set with U2OS is 2.2. In data set [1], this compound returned an EC50 of 20.8 µM.
In the data set on U2OS, `O=[N+]([O-])c1cccc(-c2ccnc(NCCCn3ccnc3)n2)c1` showed a fold change (FC) of 3.6. The EC50 in [1] is 46.3 µM.
For `c1cncc(-c2ccnc(NCCc3c[nH]c4ccccc34)n2)c1`, in that order: 10 and 4.1 µM.
In the data set with U2OS, `c1ccc2sc(-c3ccnc(NCCc4c[nH]cn4)n3)cc2c1` returned a fold change (FC) of 3.7. In data set [1], this compound showed an EC50 of 3.3 µM.
The matching figures for `OC[C@H](Cc1cn(Cc2cc(F)cc(F)c2)cn1)Nc1nccc(-c2cc3ccccc3s2)n1`: 1.7 and 16 µM.
For `Fc1c(COC[C@H](Cc2c[nH]cn2)Nc2nccc(-c3ccc4ccccc4c3)n2)cccc1C(F)(F)F`, the fold change (FC) in the data set with U2OS was 1.6. Also, in data set [1], a half-maximal effect (EC50) was put at 10.9 µM.
The IC50 is the concentration at which inhibition is half-maximal. Read a low IC50 as higher potency. `c1cc(-c2ccnc(NCCCn3ccnc3)n2)ccn1` came in with a fold change (FC) with U2OS of 2.9. Further, a half-maximal effect in data set [1] (EC50) was put at 4.2 µM. In addition, the result with Mus musculus [7], with Mus musculus [5], in the data set with Mus musculus [6] and with Mus musculus [9] was Active. In [8], this compound returned an IC50 of 51 µM.
`c1ccc2cc(-c3ccnc(NCCc4c[nH]cn4)n3)ccc2c1` had a fold change (FC) in the data set on U2OS of 1.1. Further, the EC50 in [1] is 12.1 µM.
Regarding `C#CCOC[C@H](Cc1c[nH]cn1)Nc1nccc(-c2cc3ccccc3s2)n1`, the fold change (FC) in the data set with U2OS came out at 3.5.
Take `C#CCn1cnc(C[C@@H](CO)Nc2nccc(-c3cc4ccccc4s3)n2)c1`: the fold change (FC) in the data set with U2OS worked out at 3. The compound also had an EC50 in [1] of 14.6 µM.
Compound `N#CCCn1cnc(C[C@@H](CO)Nc2nccc(-c3ccc4ccccc4c3)n2)c1` came in with a fold change (FC) with U2OS of 5.5.
For the compound `c1cncc(-c2ccnc(NCCCn3ccnc3)n2)c1`, the fold change (FC) with U2OS was 4.7. Further, the EC50 in data set [1] is 8.8 µM.
Compound `N#CCCn1cnc(C[C@@H](CO)Nc2nccc(-c3cc4ccccc4s3)n2)c1` had a fold change (FC) in the data set on U2OS of 4.1.
